Test results as given in ChEMBL document CHEMBL1131779, “Synthesis and evaluation of potential complement inhibitory semisynthetic analogs of oleanolic acid” (Bioorg Med Chem Lett, 1999).

Tests used:
[1] = In vitro therapeutic index was determined. (Therapeutic index = IC50 cytotoxicity/IC50 complement inhibition); type: functional
SK-MEL [2] = test: Compound was tested for its cytotoxicity against human malignant melanoma cell line SK-MEL; type: functional, cell-based
Homo sapiens [3] = species: Homo sapiens; test: The compound was tested in vitro for its inhibition of the classical pathway activation of human complement; type: functional
SK-MEL [4] = test: Compound was tested for its cytotoxicity against human malignant melanoma cell line SK-MEL; NA = Not active; type: functional, cell-based
[5] = The compound was tested for its apoptotic activity; no DNA migration observed; type: functional
Homo sapiens [6] = species: Homo sapiens; test: The compound was tested in vitro for its inhibition of the classical pathway activation of human complement; Not active; type: functional
[7] = The compound was tested for its apoptotic activity; No DNA migration observed; type: functional

| IC50 (Homo sapiens [3]) | IC50 (Homo sapiens [6]) | SMILES | TI [1] | IC50 (SK-MEL [2]) | IC50 (SK-MEL [4]) | Apoptotic activity [5] | Apoptotic activity [7] |
| --- | --- | --- | --- | --- | --- | --- | --- |
|  | Not Active | CC(=O)O[C@H]1CC[C@]2(C)[C@H]3CC=C4[C@@H]5CC(C)(C)CC[C@]5(C(=O)O)CC[C@@]4(C)[C@]3(C)CC[C@H]2C1(C)C [ACETYL OLEANOLIC ACID] |  |  | Not Active | no DNA migration observed |  |
|  | Not Active | CC1(C)CC[C@]2(C(=O)O)CC[C@]3(C)C(=CC[C@@H]4[C@@]5(C)CCC(=O)C(C)(C)[C@@H]5CC[C@]43C)[C@@H]2C1 [OLEANONIC ACID] |  | 31 µM |  |  |  |
| 31.8 µM |  | CC1(C)CC[C@]2(C(=O)NCCCCC(=O)O)CC[C@]3(C)C(=CCC4[C@@]5(C)CC[C@H](O)C(C)(C)C5CC[C@]43C)[C@@H]2C1 (some centres undefined) | 3.99 | 127 µM |  |  |  |
|  | Not Active | CC(=O)O[C@H]1CC[C@@]2(C)C(CC[C@]3(C)C2CC=C2[C@@H]4CC(C)(C)CC[C@]4(C(N)=O)CC[C@]23C)C1(C)C (some centres undefined) |  | 70 µM |  |  | No DNA migration observed |
| 103 µM |  | CC(C)(CC(=O)O)CC(=O)O[C@H]1CC[C@@]2(C)C(CC[C@]3(C)C2CC=C2[C@@H]4CC(C)(C)CC[C@]4(C(=O)O)CC[C@]23C)C1(C)C (some centres undefined) | 0.83 | 86 µM |  |  |  |
|  | Not Active | COC(=O)[C@]12CCC(C)(C)C[C@H]1C1=CC[C@@H]3[C@@]4(C)CC[C@H](O)C(C)(C)[C@@H]4CC[C@@]3(C)[C@]1(C)CC2 [METHYL OLEANOLATE] |  | 103 µM |  |  | No DNA migration observed |
|  | Not Active | CC1(C)CC[C@]2(C(N)=O)CC[C@]3(C)C(=CCC4[C@@]5(C)CC[C@H](O)C(C)(C)C5CC[C@]43C)[C@@H]2C1 (some centres undefined) |  |  | Not Active |  | No DNA migration observed |
|  | Not Active | CC1(C)CC[C@]2(CO)CC[C@]3(C)C(=CCC4[C@@]5(C)CC[C@H](O)C(C)(C)C5CC[C@]43C)[C@@H]2C1 (some centres undefined) |  | 105 µM |  |  | No DNA migration observed |
| 31.4 µM |  | CC1(C)CC[C@]2(C(=O)O)CC[C@]3(C)C(=CCC4[C@@]5(C)CC[C@H](OC(=O)COCC(=O)O)C(C)(C)C5CC[C@]43C)[C@@H]2C1 (some centres undefined) | 2.96 | 93 µM |  |  |  |
|  | Not Active | CC(=O)O[C@H]1CC[C@@]2(C)C(CC[C@]3(C)C2C(=O)C=C2[C@@H]4CC(C)(C)CC[C@]4(C(=O)O)CC[C@]23C)C1(C)C (some centres undefined) |  |  | Not Active |  | No DNA migration observed |
| 108 µM |  | CC1(C)CC[C@]2(C(=O)O)CC[C@]3(C)C(=CCC4[C@@]5(C)CC[C@H](OC(=O)CC(C)(C)C(=O)O)C(C)(C)C5CC[C@]43C)[C@@H]2C1 (some centres undefined) | 0.71 | 77 µM |  |  |  |
| 72.3 µM |  | CC1(C)CC[C@]2(C(=O)O)CC[C@]3(C)C(=CC[C@@H]4[C@@]5(C)CC[C@H](O)C(C)(C)[C@@H]5CC[C@]43C)[C@@H]2C1 [OLEANOLIC_ACID] | 1.55 | 112 µM |  | no DNA migration observed |  |
|  | Not Active | CC1(C)CC[C@]2(C(=O)NCCCCCCCCCCC(=O)O)CC[C@]3(C)C(=CCC4[C@@]5(C)CC[C@H](O)C(C)(C)C5CC[C@]43C)[C@@H]2C1 (some centres undefined) |  |  | Not Active |  | No DNA migration observed |
| 146 µM |  | CC1(C)CC[C@]2(C(=O)NCC(=O)O)CC[C@]3(C)C(=CC[C@@H]4[C@@]5(C)CC[C@H](O)C(C)(C)[C@@H]5CC[C@]43C)[C@@H]2C1 | 0.78 | 115 µM |  |  | No DNA migration observed |
| 234 µM |  | CC1(C)CC[C@]2(C(=O)O)CC[C@]3(C)C(=CC(=O)C4[C@@]5(C)CC[C@H](O)C(C)(C)C5CC[C@]43C)[C@@H]2C1 (some centres undefined) | 0.56 | 131 µM |  |  |  |

| SMILES | IC50 (Homo sapiens [3]) | IC50 (Homo sapiens [6]) | TI [1] | IC50 (SK-MEL [2]) | IC50 (SK-MEL [4]) | Apoptotic activity [5] | Apoptotic activity [7] |
| --- | --- | --- | --- | --- | --- | --- | --- |
| C=C(C)[C@@H]1CC[C@]2(C(=O)O)CC[C@]3(C)[C@H](CC[C@@H]4[C@@]5(C)CC[C@H](O)C(C)(C)[C@@H]5CC[C@]43C)[C@@H]12 [BETULINIC ACID] | 577 µM |  | 0.06 | 35 µM |  |  |  |
